According to US11026423B2, “Herbicidal compositions and methods” (SePRO Corporation, priority 2013, dated 2021):

Experiments:
[1] = system: weeds in walnut orchard; test: Example 11 walnut orchard field trial: weed efficacy; assay type: in vivo
Method: A field trial was performed in a dormant 4th year walnut orchard (Chandler variety) located near Stockton, Calif. The trial was initiated in December for weed efficacy studies and crop tolerance studies. Plots were about 8 feet by about 18 feet (about 2.43 meters by about 5.49 meters) with one tree per plot arranged in a randomized complete block design with three replications. Fluridone, flumioxazin, Roundup, and glufosinate ammonium were tested.

[2] = system: redmaids (Calandrinia sp.); test: Example 7 Kerman vineyard: redmaids control; assay type: in vivo; details: 58 DAT, fluridone 0.2, 0.4 and 0.8 lb/ac
Text: (§1) Trials were placed in grape vineyards located in Kerman and Kingsburg, Calif. The soil in both locations is classified as a sandy loam. Preemergent herbicide applications were made in the month of January in Kerman and in the month of March in Kingsburg. […] Additionally, indaziflam applied at 0.065 lb/ac was included at the Kingsburg site. […] Both sites were irrigated as needed during the growing season to avoid drought conditions. Visual evaluations of crop injury and weed control were made monthly on a 0 to 100% scale. Cultivation occurred in the row centers at the Kerman location following the 58 DAT evaluations, and therefore, the Kerman results following 58 DAT were not evaluated. No cultivation occurred in Kingsburg during the trial period.

[3] = system: weeds (total weed control); test: Example 10 irrigated walnut, Stockton, Calif.: total weed control; assay type: in vivo; details: fluridone 0.2 to 0.4 lb/ac
Method: An experiment with walnut was conducted during the months of December to the month of June the following year in Stockton, Calif. Plots were arranged as a randomized complete block with three replicates. Plots were 8 ft×8 ft (about 2.43 meters by meters)(1 tree/plot). The soil on the site is classified as a clay loam. […] The site received approximately four inches (about 10.16 cm) of rainfall in the first 35 DAT, and an additional 2.9 inches (about 7.366 cm) rainfall and 6.5 inches (about 16.51 cm) irrigation the next 124 days thereafter. Visually evaluations of weed control were made monthly on a 0 to 100% scale.

[4] = system: hairy fleabane; test: Example 6 Shafter almond orchard: hairy fleabane control; assay type: in vivo, Conyza bonariensis; details: 211 DAT, fluridone 0.4 and 0.8 lb/ac
Method: (§2) Field trials were conducted in California to determine sweet almond (Prunus dulcis) tolerance to fluridone and efficacy of fluridone in an irrigated orchard environment. Trial locations included a two-year old almond stand in Kerman, Calif. and a six-year old stand in Shafter, Calif. The soil in both locations is classified as a sandy loam. Applications prior to emergence of weeds (PRE) of herbicides were made in the month of January in Kerman and in the month of January in Shafter. […] Rainfall (0.32 in (about 0.813 cm)) and irrigation (1.5 in (about 3.81 cm)) one day after PRE applications were used to incorporate herbicides into the soil at the Kerman and Shafter locations, respectively. Both sites were irrigated as needed during the growing season to avoid drought conditions. Visual evaluations of crop injury and weed control were made monthly on a 0 to 100% scale. Postemergent (POST) broadcast applications of a non-selective, contact herbicide was broadcast across all treatments in Kerman prior to the 90 days after treatment and 119 days after treatment (DAT) ratings. Thus, data from those ratings dates was not evaluated. No POST applications were made in Shafter.

[5] = system: weeds; test: Example 12 UC Davis almond orchard: weed control; assay type: in vivo; details: 1 to 5 months after treatment, all treatment rates
Method: (§3) A field trial was conducted in northern California for weed control and safety in one peach orchand and two almond orchards. The herbicide applications were made between January and February when the tree crops were dormant.

[6] = system: Palmer amaranth; test: Example 10 dryland cotton field, Jackson, Tenn.: Palmer amaranth control; assay type: in vivo, Amaranthus palmeri; details: fluridone 0.1 to 0.5 lb/ac
Method: An experiment with cotton was conducted during the months of April to the month of June in Jackson, Tenn. Plots were arranged as a randomized complete block with four replicates. Plots were 6.3 ft by 30 ft (about 1.92 meteres by about 9.114 meters). The soil on the site was classified as a silt loam soil. […] The site received approximately four inches (about 10.16 cm) of rainfall in the first 35 days after treatment (DAT). Visually evaluations of Palmer amaranth control were made twice a month on a 0 to 100% scale.

[7] = system: spotted spurge (Euphorbia maculate); test: Example 6 Shafter almond orchard: spotted spurge control; assay type: in vivo; details: 211 DAT, fluridone 0.4 and 0.8 lb/ac
Method: as §2

[8] = system: hairy fleabane; test: Example 8 Elderwood orange orchard: hairy fleabane control; assay type: in vivo
Method: (§4) A field trial was conducted in California to evaluate tolerance of non-bearing “Cara Cara” orange (Citrus sinensis) to fluridone and the efficacy of fluridone in an irrigated orchard environment. The trial was initiated in the month of January in Elderwood, Calif. The soil on the trial site was classified as a clay. […] Rainfall (0.44 in. (about 1.12 cm)) that occurred in the first week following PRE application incorporated the herbicides into the soil. The site was irrigated as needed during the growing season to avoid drought conditions. Visual evaluations of crop injury and weed density were made on a 0 to 100% scale. Additionally, plant counts per plot of weed species present were conducted for each evaluation period.

[9] = system: Palmer amaranth (Amaranthus palmeri); test: Example 9 greenhouse: preemergence Palmer amaranth control under varying irrigation; assay type: in vivo; details: fluridone 0.2 lb/ac, coarse sand soil, irrigation 0 to 1.0 inch
Method: An experiment was conducted beginning in the month of August in a greenhouse. The greenhouse was arranged as a randomized complete block with four replicates. A coarse sand soil was used to fill four inch diameter pots. […] Overhead irrigation occurred eight and 10 days after treatment, applying an additional 0.25 inch (abou 0.635 cm) of water to each pot. Palmer amaranth control was determined by counting seedlings in each pot weekly.

[10] = system: yellow nutsedge (Cyperus esculentus L.); test: Example 6 Kerman almond orchard: yellow nutsedge control; assay type: in vivo; details: 184 DAT, 0.4 and 0.8 lb fluridone/ac
Method: as §2

[11] = system: hare barley, annual sowthistle, black medic, chickweed, and redstem filaree; test: Example 12 Arbuckle almond orchard: weed control; assay type: in vivo; details: approximately 1, 2 and 3 months after treatment
Method: as §3
Weed control and crop safety were evaluated at approximately 1, 2, and 3 months after treatment. Weed pressure was fairly heavy, and uniform over the trial site. Populations of hare barley, annual sowthistle, black medic, chickweed, and redstem filaree were recorded.

[12] = system: yellow nutsedge; test: Example 6 Shafter almond orchard: yellow nutsedge control; assay type: in vivo, Cyperus esculentus L.
Method: as §2

[13] = system: witchgrass (Panicum capillare L.); test: Example 8 Elderwood orange orchard: witchgrass control; assay type: in vivo; details: 168 DAT, three highest fluridone rates; indaziflam
Method: as §4

[14] = system: crabgrass (Digitaria spp.); test: Example 6 Kerman almond orchard: crabgrass control; assay type: in vivo; details: 184 DAT, 0.4 and 0.8 lb fluridone/ac
Method: as §2

[15] = system: sprangletop (Leptochloa sp.); test: Example 6 Shafter almond orchard: sprangletop control; assay type: in vivo; details: 211 DAT, three highest rates of fluridone
Method: as §2

[16] = system: prostrate spurge (Euphorbia supine Raf.); test: Example 8 Elderwood orange orchard: prostrate spurge control; assay type: in vivo; details: 168 DAT, PRE
Method: as §4

[17] = system: "Cara Cara" orange (Citrus sinensis); test: Example 8 field trial: orange tolerance; assay type: in vivo; details: Elderwood, PRE application, trial period
[18] = system: 'Thompson' grape (Vitis vinifera); test: Example 7 field trials: grape tolerance; assay type: in vivo; details: PRE application, Kerman and Kingsburg
Text: as §1

[19] = system: cotton plants; test: Example 3 growth chamber trial, pre-emergent application on cotton; assay type: in vivo
Method: 0.1 L conical assay tubes were planted with a cotton or soybean seed in a sample of sandy loam soil. Seven tubes were prepared for each herbicide application rate. Application of a herbicide composition was performed after planting the seed and prior to the plant's emergence from the soil (i.e., pre-emergent or PRE). Approximately 0.15 inches of water was applied to each pot four hours after application. […] The greenhouse was maintained at 26±5° C. during the day and 11±1° C. during the night.

[20] = system: sweet almond (Prunus dulcis); test: Example 6 field trials: almond tolerance; assay type: in vivo; details: Kerman, any PRE herbicide application
Method: as §2

[21] = system: cotton plants; test: Pot demonstration of safening in cotton (FIG. 4); assay type: in vivo; details: three cotton plants planted, flumioxazin only (FIG. 4)
Text: Flumioxazin is another herbicide member of the PPO-inhibitor class that is commonly applied pre-emergent to control weeds, and has the chemical name 2-[7-fluoro-3,4-dihydro-3-oxo-4-(2-propynyl)-2H-1,4-benzoxazin-6-yl]-4,5,6,7-tetrahydro-1H-isoindole-1,3(2H)-dione. In certain embodiments of the present invention, flumioxazin can be applied to soil at a rate of about 0.015 pounds per acre to about 0.25 pounds per acre. In other embodiments, flumioxazin can be applied to soil at a rate of about 0.03 pounds per acre to about 0.25 pounds per acre. In another embodiment, flumioxazin can be applied to soil at a rate of about […] to about 0.2 pounds per acre.

[22] = system: cotton; test: Greenhouse trial: cotton response across soil types and moisture conditions; assay type: in vivo
Text: In addition to these field trials, greenhouse studies were also undertaken. […] Four soil types were examined: a predominantly clay soil, a sandy loam soil, a loamy peat soil, and a sandy soil.

[23] = system: P. amaranth; test: May field trial: weed control in cotton field; assay type: in vivo, Amaranthus palmeri; details: May planting field trial, pre-emergent, 1 and 9 weeks post treatment
Method: (§5) Cotton was planted in fields in May. The field was then over seeded with P. amaranth. […] Within 24 hours of application of the herbicide, 0.25 inches of rain was recorded. An additional planting of cotton, by hand, was conducted in August with multiple rates.

[24] = system: cotton; test: May field trial: phytotoxicity to cotton; details: May planting field trial, pre-emergent, 1 and 9 weeks post treatment
Method: as §5

[25] = system: P. amaranth; test: Greenhouse trial: P. amaranth control across soil types and moisture conditions; assay type: in vivo, Amaranthus palmeri; details: low moisture conditions across some soil types
Text: In addition to these field trials, greenhouse studies were also undertaken. The greenhouse studies evaluated the use of fluridone, fomesafen, and the combination of fluridone and fomesafen as well as the affect of soil types, and moisture conditions. Four soil types were examined: a predominantly clay soil, a sandy loam soil, a loamy peat soil, and a sandy soil. The moisture conditions evaluated were at 0.2 inches of water, and 1.5 inches of water.

Compound: 1-methyl-3-phenyl-5-[3-(trifluromethyl)phenyl]-4(1H)-pyridone [fluridone]
- weeds observed in plots ([1]; 129 DAT, lower rates): Some weeds were observed
- weeds observed in plots ([1]; 159 DAT, fluridone applied at lower rates): lambsquarter, bindweed, spurge and knotweed were observed
- redmaids control greater than flumioxazin [2]: 13.5%
- total weed control [3]: good total weed control
- hairy fleabane control compared to 0.1 and 0.2 lb fluridone/ac [4]: significantly greater control
- weed control [5]: good weed control
- Palmer amaranth control [6]: good control of Palmer amaranth
- spotted spurge control compared to 0.1 and 0.2 lb fluridone/ac [7]: significantly greater control
- hairy fleabane control [8]: Neither fluridone nor indaziflam effectively controlled
- preemergent Palmer amaranth control vs amount of irrigation [9]: increasing the amount of irrigation increases preemergent control
- yellow nutsedge control compared to flumioxazin [10]: similar
- control of all weeds present [11]: ~100%
- yellow nutsedge control compared to 0.1 and 0.2 lb fluridone/ac ([12]; 211 DAT, fluridone 0.4 and 0.8 lb/ac): significantly greater control
- yellow nutsedge control compared to flumioxazin ([12]; fluridone applied at every rate): significantly greater than flumioxazin
- control of witchgrass [13]: 100%
- crabgrass control greater than flumioxazin [14]: 10%
- sprangletop control compared to flumioxazin [15]: significantly greater control than flumioxazin

Compound: Cc1ccc2c(c1)[C@H](Nc1nc(N)nc(C(C)F)n1)[C@@H](C)C2 (mixture of isomers) [indaziflam, N-[(1R,2S)-2,3-dihydro-2,6-dimethyl-1H-inden-1-yl]-6-[(1RS)-1-fluoroethyl]-1,3,5-triazine-2,4-diamine]
- prostrate spurge control [16]: 95%
- hairy fleabane control [8]: Neither fluridone nor indaziflam effectively controlled
- phytotoxicity [17]: did not contribute to phytotoxicity
- phytotoxicity [18]: Phytotoxicity was not observed
- control of witchgrass [13]: 100%

Compound: C#CCN1C(=O)COc2cc(F)c(N3C(=O)C4=C(CCCC4)C3=O)cc21 [flumioxazin, 2-[7-fluoro-3,4-dihydro-3-oxo-4-(2-propynyl)-2H-1,4-benzoxazin-6-yl]-4,5,6,7-tetrahydro-1H-isoindole-1,3(2H)-dione]
- weeds observed in plots ([1]; 129 DAT, lower rates): Some weeds were observed
- crop stand (number of viable plants) ([19]; 0.05 lb/A flumioxazin, seven tubes): one surviving plants out of seven
- growth stage / growth stunting ([19]; 26 days after treatment, flumioxazin 0.05 lb/A, scale 0-3): the most growth stunting
- injury to cotton plants ([19]; application rates greater than 0.025 lb/A flumioxazin): significantly injured
- cotyledons with excessive wrinkling and brown spotting due to herbicide injury ([19]; flumioxazin alone 0.05 lb/A, 26 days after treatment): all of the cotyledons show brown spotting
- lethality to cotton plants ([19]; flumioxazin at the highest rates (FIG. 15)): fatal to cotton plants
- phytotoxicity [20]: Phytotoxicity was not observed
- emergence of cotton plants from the soil [21]: only one emerged from the soil
- phytotoxicity [18]: Phytotoxicity was not observed

Compound: CS(=O)(=O)NC(=O)c1cc(Oc2ccc(C(F)(F)F)cc2Cl)ccc1[N+](=O)[O-] [fomesafen, 5-[2-chloro-4-(trifluoromethyl)phenoxy]-N-(methylsulfonyl)-2-nitrobenzamide]
- growth of treated cotton plants ([22]; 4 weeks after planting (FIG. 3A, 3B)): stunting effect on cotton
- stunting ([22]; less than ideal growing conditions, compared to fluridone and fluridone/fomesafen treatments): some stunting was observed
- control of P. amaranth [23]: showed control of P. amaranth
- phytotoxicity [24]: no phytotoxicity was observed
- P. amaranth control [25]: not able to provide complete P. amaranth control
